Data as given in US8722849B2, “Polypeptides” (Novo Nordisk A/S, priority 2011, dated 2014).
Starred links: 1 amine or outer side, 2 acyl side, 3 side chain; linkers in the order of their positions; H or OH if unused. Positions of bridges follow the written chain, without caps; N, C: chain ends. Residues, ends and D or L forms follow the SMILES beside them. *: point of attachment. C20 diacid = O=C(O)CCCCCCCCCCCCCCCCCCC(=O)*; C18 diacid = O=C(O)CCCCCCCCCCCCCCCCC(=O)*; γGlu = O=C(O)[C@H](CCC(=O)[*:2])N[*:1]

Legend:
Assay type in all cases: cell-based
[1] = molecular target: T1, human calcitonin receptor (Homo sapiens, UniProt P30988); assay: Assay (II)a functional CRE-luciferase assay, human calcitonin receptor; settings: Table 7; human calcitonin (CTa) receptor
T1 construct: expressed in transfected cells; host or cells: BHK570
T1 sequence (P30988 25-474): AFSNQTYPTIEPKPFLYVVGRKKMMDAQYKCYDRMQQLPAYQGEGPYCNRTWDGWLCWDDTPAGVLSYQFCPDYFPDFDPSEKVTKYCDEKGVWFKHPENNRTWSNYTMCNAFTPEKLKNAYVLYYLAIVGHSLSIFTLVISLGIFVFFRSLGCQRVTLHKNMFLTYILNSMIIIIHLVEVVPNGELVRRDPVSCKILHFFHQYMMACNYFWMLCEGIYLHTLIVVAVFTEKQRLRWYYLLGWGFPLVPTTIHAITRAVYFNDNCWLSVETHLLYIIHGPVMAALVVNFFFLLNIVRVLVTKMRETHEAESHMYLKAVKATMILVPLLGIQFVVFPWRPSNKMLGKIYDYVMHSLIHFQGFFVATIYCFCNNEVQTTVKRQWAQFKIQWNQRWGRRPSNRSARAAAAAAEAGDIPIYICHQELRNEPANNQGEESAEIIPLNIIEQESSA

[2] = molecular target: T2, rat amylin 3(a) receptor (rat calcitonin(a) receptor + rat RAMP3) (Rattus norvegicus, UniProt P32214+Q9JJ73); assay: Assay (II)b functional cAMP FlashPlate assay, rat amylin receptor; settings: Table 11
T2 construct: expressed in transfected cells; host or cells: BHK tk'ts 13
T2 sequence (P32214 25-479 isoform P32214-2 limits assumed): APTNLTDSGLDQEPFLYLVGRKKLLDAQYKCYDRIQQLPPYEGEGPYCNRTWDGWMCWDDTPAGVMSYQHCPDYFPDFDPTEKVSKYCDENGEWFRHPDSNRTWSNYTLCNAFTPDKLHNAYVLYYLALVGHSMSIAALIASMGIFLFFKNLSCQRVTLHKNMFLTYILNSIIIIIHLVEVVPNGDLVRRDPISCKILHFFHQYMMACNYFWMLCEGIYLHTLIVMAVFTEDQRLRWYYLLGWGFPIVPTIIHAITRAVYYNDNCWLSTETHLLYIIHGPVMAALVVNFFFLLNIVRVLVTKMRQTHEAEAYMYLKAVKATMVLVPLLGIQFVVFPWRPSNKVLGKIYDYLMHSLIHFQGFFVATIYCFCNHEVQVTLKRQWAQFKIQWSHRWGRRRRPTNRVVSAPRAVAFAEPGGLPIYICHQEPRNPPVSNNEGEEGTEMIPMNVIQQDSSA
T2 sequence (Q9JJ73 23-147 partner): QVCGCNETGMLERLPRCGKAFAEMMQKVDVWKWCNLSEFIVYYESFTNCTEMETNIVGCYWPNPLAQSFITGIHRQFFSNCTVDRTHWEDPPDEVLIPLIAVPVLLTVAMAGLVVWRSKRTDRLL
In short: (§1)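 cAMP accumulation in transiently transfected BHK tk'ts 13 cells, 100.000 cells/well, expressing rat calcitonin(a) receptor or its RAMP3 co-expression form (amylin 3(a)): 30 min stimulation with IBMX, 24 hours post-transfection. Readout by competition of cellular versus radiolabelled cAMP in FlashPlates, scintillation counted after 3 h.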

[3] = molecular target: T3, rat calcitonin (a) receptor (Rattus norvegicus, UniProt P32214); assay: Assay (II)b functional cAMP FlashPlate assay, rat calcitonin receptor; settings: Table 11; read-out: CTa receptor rat EC50
T3 construct: expressed in transfected cells; host or cells: BHK tk'ts 13
T3 sequence (P32214 25-479 isoform P32214-2 limits assumed): T2 sequence (P32214 25-479 isoform P32214-2 limits assumed)
In short: as §1

| Compound | EC50 [1] | EC50 [2] | EC50 [3] |
| --- | --- | --- | --- |
| CC[C@H](C)[C@H](NC(=O)[C@@H]1CCCN1C(=O)CNC(=O)[C@H](Cc1ccccc1)NC(=O)[C@H](CC(N)=O)NC(=O)[C@H](CC(N)=O)NC(=O)[C@H](CO)NC(=O)[C@H](CO)NC(=O)[C@H](Cc1c[nH]cn1)NC(=O)[C@H](Cc1c[nH]cn1)NC(=O)[C@H](CC(C)C)NC(=O)[C@H](Cc1ccccc1)NC(=O)[C@H](CCC(=O)O)NC(=O)[C@H](C)NC(=O)[C@H](CC(C)C)NC(=O)[C@H](CCCNC(=N)N)NC(=O)[C@H](CCC(N)=O)NC(=O)[C@@H](NC(=O)[C@H](C)NC(=O)[C@@H]1CSSC[C@H](NC(=O)[C@H](CCCNC(=N)N)NC(=O)CC[C@H](NC(=O)CCCCCCCCCCCCCCCCCCC(=O)O)C(=O)O)C(=O)N[C@@H](CC(N)=O)C(=O)N[C@@H]([C@@H](C)O)C(=O)N[C@@H](C)C(=O)N[C@@H]([C@@H](C)O)C(=O)N1)[C@@H](C)O)C(=O)N[C@@H](CC(C)C)C(=O)N1CCC[C@H]1C(=O)N1CCC[C@H]1C(=O)N[C@H](C(=O)N[C@@H](CC(N)=O)C(=O)N[C@H](C(=O)NCC(=O)N[C@@H](CO)C(=O)N[C@@H](CC(N)=O)C(=O)N[C@H](C(=O)N1CCC[C@H]1C(N)=O)[C@@H](C)O)C(C)C)[C@@H](C)O [Example 96, N-alpha-[(S)-4-Carboxy-4-(19-carboxynonadecanoylamino)butyryl]-[Arg1,Glu14,His17,Pro37]-pramlintide] ({C20 diacid-γGlu}-RCNTATCATQRLAEFLHHSSNNFGPILPPTNVGSNTP-NH2; disulfide 2-7 (inferred)) | 0.055 nM | 0.088 nM | 0.058 nM |
| CC[C@H](C)[C@H](NC(=O)[C@@H]1CCCN1C(=O)CNC(=O)[C@H](Cc1ccccc1)NC(=O)[C@H](CC(N)=O)NC(=O)[C@H](CC(N)=O)NC(=O)[C@H](CO)NC(=O)[C@H](CO)NC(=O)[C@H](Cc1c[nH]cn1)NC(=O)[C@H](Cc1c[nH]cn1)NC(=O)[C@H](CC(C)C)NC(=O)[C@H](Cc1ccccc1)NC(=O)[C@H](CCC(=O)O)NC(=O)[C@H](C)NC(=O)[C@H](CC(C)C)NC(=O)[C@H](CCCNC(=N)N)NC(=O)[C@H](CCC(N)=O)NC(=O)[C@@H](NC(=O)[C@H](C)NC(=O)[C@@H]1CSSC[C@H](NC(=O)[C@H](Cc2c[nH]cn2)NC(=O)CC[C@H](NC(=O)CCCCCCCCCCCCCCCCC(=O)O)C(=O)O)C(=O)N[C@@H](CC(N)=O)C(=O)N[C@@H]([C@@H](C)O)C(=O)N[C@@H](C)C(=O)N[C@@H]([C@@H](C)O)C(=O)N1)[C@@H](C)O)C(=O)N[C@@H](CC(C)C)C(=O)N1CCC[C@H]1C(=O)N1CCC[C@H]1C(=O)N[C@H](C(=O)N[C@@H](CC(N)=O)C(=O)N[C@H](C(=O)NCC(=O)N[C@@H](CO)C(=O)N[C@@H](CC(N)=O)C(=O)N[C@H](C(=O)N[C@@H](Cc1ccc(O)cc1)C(N)=O)[C@@H](C)O)C(C)C)[C@@H](C)O [Example 48, N-alpha-[(S)-4-Carboxy-4-(17-carboxyheptadecanoylamino)butyryl]-[His1,Glu14,His17]-pramlintide] ({C18 diacid-γGlu}-HCNTATCATQRLAEFLHHSSNNFGPILPPTNVGSNTY-NH2; disulfide 2-7 (inferred)) | 0.112 nM | 0.015 nM | 0.375 nM |
| CC[C@H](C)[C@H](NC(=O)[C@@H]1CCCN1C(=O)CNC(=O)[C@H](Cc1ccccc1)NC(=O)[C@H](CC(N)=O)NC(=O)[C@H](CC(N)=O)NC(=O)[C@H](CO)NC(=O)[C@H](CO)NC(=O)[C@H](Cc1c[nH]cn1)NC(=O)[C@H](Cc1c[nH]cn1)NC(=O)[C@H](CC(C)C)NC(=O)[C@H](Cc1ccccc1)NC(=O)[C@H](CCC(=O)O)NC(=O)[C@H](C)NC(=O)[C@H](CC(C)C)NC(=O)[C@H](CCCNC(=N)N)NC(=O)[C@H](CCC(N)=O)NC(=O)[C@@H](NC(=O)[C@H](C)NC(=O)[C@@H]1CSSC[C@H](NC(=O)[C@H](Cc2c[nH]cn2)NC(=O)[C@H](Cc2c[nH]cn2)NC(=O)[C@H](Cc2c[nH]cn2)NC(=O)CC[C@H](NC(=O)CCCCCCCCCCCCCCCCCCC(=O)O)C(=O)O)C(=O)N[C@@H](CC(N)=O)C(=O)N[C@@H]([C@@H](C)O)C(=O)N[C@@H](C)C(=O)N[C@@H]([C@@H](C)O)C(=O)N1)[C@@H](C)O)C(=O)N[C@@H](CC(C)C)C(=O)N1CCC[C@H]1C(=O)N1CCC[C@H]1C(=O)N[C@H](C(=O)N[C@@H](CC(N)=O)C(=O)N[C@H](C(=O)NCC(=O)N[C@@H](CO)C(=O)N[C@@H](Cc1c[nH]cn1)C(=O)N[C@H](C(=O)N[C@@H](Cc1ccc(O)cc1)C(N)=O)[C@@H](C)O)C(C)C)[C@@H](C)O [Example 31, N-alpha-[(S)-4-Carboxy-4-(19-carboxynonadecanoylamino)butyryl]-His-His-[His1,Glu14,His17,His35]-pramlintide] ({C20 diacid-γGlu}-HHHCNTATCATQRLAEFLHHSSNNFGPILPPTNVGSHTY-NH2; disulfide 4-9 (inferred); C-terminus assumed) | 0.156 nM | 0.2 nM | 1.31 nM |
| CC[C@H](C)[C@H](NC(=O)[C@@H]1CCCN1C(=O)CNC(=O)[C@H](Cc1ccccc1)NC(=O)[C@H](CC(N)=O)NC(=O)[C@H](CC(N)=O)NC(=O)[C@H](CO)NC(=O)[C@H](CO)NC(=O)[C@H](Cc1c[nH]cn1)NC(=O)[C@H](CCCNC(=N)N)NC(=O)[C@H](CC(C)C)NC(=O)[C@H](Cc1ccccc1)NC(=O)[C@H](CCC(=O)O)NC(=O)[C@H](C)NC(=O)[C@H](CC(C)C)NC(=O)[C@H](CCCNC(=N)N)NC(=O)[C@H](CCC(N)=O)NC(=O)[C@@H](NC(=O)[C@H](C)NC(=O)[C@@H]1CSSC[C@H](NC(=O)[C@H](CCCCN)NC(=O)CC[C@H](NC(=O)CCCCCCCCCCCCCCCCCCC(=O)O)C(=O)O)C(=O)N[C@@H](CC(N)=O)C(=O)N[C@@H]([C@@H](C)O)C(=O)N[C@@H](C)C(=O)N[C@@H]([C@@H](C)O)C(=O)N1)[C@@H](C)O)C(=O)N[C@@H](CC(C)C)C(=O)N1CCC[C@H]1C(=O)N1CCC[C@H]1C(=O)N[C@H](C(=O)N[C@@H](CC(N)=O)C(=O)N[C@H](C(=O)NCC(=O)N[C@@H](CO)C(=O)N[C@@H](CC(N)=O)C(=O)N[C@H](C(=O)N1CCC[C@H]1C(N)=O)[C@@H](C)O)C(C)C)[C@@H](C)O [Example 53, N-alpha-[(S)-4-Carboxy-4-(19-carboxynonadecanoylamino)butyryl]-[Glu14,Arg17,Pro37]-pramlintide] |  | 0.348 nM | 0.287 nM |
